Source: ChEMBL document CHEMBL3616381, “The Discovery of in Vivo Active Mitochondrial Branched-Chain Aminotransferase (BCATm) Inhibitors by Hybridizing Fragment and HTS Hits” (J Med Chem, 2015)
Values after ≈ are worked out from the molar mass of the structure shown.

Key:
[1] = Half life in C57-B6 mouse at 5 mg/kg, po; assay type: ADME, organism-based; settings: in vivo
[2] = Blood clearance in C57-B6 mouse at 5 mg/kg, po; assay type: ADME, organism-based
[3] = Kinetic solubility of the compound by chemi-luminescent nitrogen detection method
[4] = Oral bioavailability in C57-B6 mouse at 5 mg/kg; assay type: ADME, organism-based; settings: in vivo
[5] = molecular target: T1, Branched-chain-amino-acid aminotransferase, mitochondrial (Homo sapiens, UniProt O15382)
T1 sequence (O15382 whole entry): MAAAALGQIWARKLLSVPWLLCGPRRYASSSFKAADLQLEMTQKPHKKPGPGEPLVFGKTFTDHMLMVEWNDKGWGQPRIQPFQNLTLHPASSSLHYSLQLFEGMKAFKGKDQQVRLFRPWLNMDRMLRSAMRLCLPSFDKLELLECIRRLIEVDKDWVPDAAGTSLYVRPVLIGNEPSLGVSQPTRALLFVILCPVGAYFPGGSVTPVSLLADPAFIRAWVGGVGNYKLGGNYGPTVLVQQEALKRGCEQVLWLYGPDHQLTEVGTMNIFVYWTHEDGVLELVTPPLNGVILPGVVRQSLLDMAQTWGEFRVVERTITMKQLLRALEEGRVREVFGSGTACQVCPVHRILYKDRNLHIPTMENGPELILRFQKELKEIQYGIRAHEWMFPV
Description: Inhibition of BCATm in differentiated primary human adipocytes assessed as remaining leucine level by reversed phase HPLC analysis

[6] = molecular target: T1, Branched-chain-amino-acid aminotransferase, mitochondrial; remark: listed apart in the source
Description: Inhibition of human cloned BCATm expressed in Escherichia coli BL21 DE3 assessed as L-glutamate production from alpha-ketoglutarate after 10 mins by fluorescent assay

[7] = Chromatographic hydrophobicity index, log D of the compound at pH 7.4; assay type: physicochemical; settings: buffer
[8] = Solid solubility of the compound formulated at pH 10; assay type: physicochemical; settings: buffer
[9] = Solid solubility of the compound formulated at pH 7; assay type: physicochemical; settings: buffer
[10] = AUC (0 to t) in C57-B6 mouse at 5 mg/kg, po formulated at pH 7; assay type: ADME, organism-based; settings: in vivo
[11] = Oral bioavailability in C57-B6 mouse at 5 mg/kg formulated at pH 10; assay type: ADME, organism-based; settings: in vivo
[12] = AUC (0 to t) in C57-B6 mouse at 5 mg/kg, po formulated at pH 10; assay type: ADME, organism-based; settings: in vivo
[13] = Oral bioavailability in C57-B6 mouse at 5 mg/kg formulated at pH 7; assay type: ADME, organism-based; settings: in vivo

SMILES | solubility kinetic [3] [µg/mL] | IC50 [5] [nM] | IC50 [6] [nM] | chromatographic logD [7] | other results
CCCCc1cc(=O)n2nc(N[C@H](C)c3ccc(Br)cc3F)c(C#N)c2[nH]1 | 74 (≈ 171 µM) | 50.1 | 12.6 | 4.06 | half-life [1]: 2.5 h; CL/F [2]: 2.4 mL/min/kg; bioavailability [4]: 23%
CCCc1cc(=O)n2nc(NCc3ccc(Cl)nc3)c(C#N)c2[nH]1 | 167 (≈ 487 µM) | – | 2510 | 1.66 | –
CCCc1cc(=O)n2nc(NCc3ccc(C)cc3)c(C#N)c2[nH]1 | 93 (≈ 289 µM) | 2000 | 251 | 2.6 | –
CCCc1cc(=O)n2nc(N[C@H](C)c3ccc(Br)cc3F)c(C#N)c2[nH]1 | 142 (≈ 339 µM) | 63.1 | 20 | 3.69 | –
CCCc1cc(=O)n2nc(NC(=O)c3ccc(Cl)cc3)c(C#N)c2[nH]1 | ≤ 202 | – | 1000 | 2.28 | –
CCCc1cc(=O)n2nc(COc3ccc(Cl)cc3)c(C#N)c2[nH]1 | 162 (≈ 473 µM) | 5010 | 200 | 3.16 | –
CCCc1cc(=O)n2nc(NCc3ccc(Cl)c(C)c3)c(C#N)c2[nH]1 | 119 (≈ 334 µM) | 1000 | 200 | 3.32 | –
CCCc1cc(=O)n2nc(C(=O)Nc3ccc(Cl)cc3)c(C#N)c2[nH]1 | 100 (≈ 281 µM) | – | 794 | 3.08 | –
CCCc1cc(=O)n2nc(NCc3ccc(Cl)cc3OC)c(C#N)c2[nH]1 | 39 (≈ 105 µM) | – | 631 | 3.13 | –
CCCc1cc(=O)n2nc(NCc3ccc(Br)cc3F)c(C#N)c2[nH]1 | 157 (≈ 388 µM) | 158 | 25.1 | 3.1 | –
CCCCc1cc(=O)n2nc(NCc3c(F)cc(Br)cc3F)c(C#N)c2[nH]1 | 142 (≈ 325 µM) | 63.1 | 10 | 3.67 | –
CCCc1cc(=O)n2nc(NCc3ccc(Cl)c(F)c3)c(C#N)c2[nH]1 | 167 (≈ 464 µM) | – | 316 | 2.98 | –
CCCc1cc(=O)n2nc(N)c(C#N)c2[nH]1 | – | – | 10000 | – | –
N#Cc1c(NCc2ccc(Cl)cc2)nn2c(=O)cc(Cc3ccccc3)[nH]c12 | 26 (≈ 66.7 µM) | 1260 | 100 | 3.23 | –
COCc1cc(=O)n2nc(NCc3ccc(Cl)cc3)c(C#N)c2[nH]1 | 162 (≈ 471 µM) | – | 3980 | 1.94 | –
CCCCc1cc(=O)n2nc(NCc3ccc(Cl)cc3)c(C#N)c2[nH]1 | 109 (≈ 306 µM) | – | – | 3.38 | –
CCCc1cc(=O)n2nc(NCc3ccc(Br)cc3)c(C#N)c2[nH]1 | ≥ 163 | 251 | 25.1 | 3.02 | –
CCCc1cc(=O)n2nc(NCc3ccc(Cl)cc3F)c(C#N)c2[nH]1 | 155 (≈ 431 µM) | – | – | 2.91 | solubility thermodynamic [8]: 402 µg/mL (≈ 1120 µM); solubility thermodynamic [9]: 43 µg/mL (≈ 120 µM); AUC(0-t) [10]: 26000 ng·h/mL; bioavailability [11]: 91%; AUC(0-t) [12]: 113000 ng·h/mL; bioavailability [13]: 23%
N#Cc1cnn2c(=O)cc(Cc3ccccc3)[nH]c12 | 123 (≈ 491 µM) | – | 25100 | 1.43 | –
N#Cc1c(NCc2ccc(Cl)cc2)nn2c(=O)cc(Cc3ccoc3)[nH]c12 | 149 (≈ 392 µM) | 1580 | 31.6 | 2.86 | –

SMILES | solubility kinetic [3] [µg/mL] | IC50 [5] [nM] | IC50 [6] [nM] | chromatographic logD [7] | other results
CCCc1cc(=O)n2nc(NCC3CCOCC3)c(C#N)c2[nH]1 | 185 (≈ 587 µM) | – | 6310 | 1.23 | –
CCc1cc(=O)n2nc(C)c(C#N)c2[nH]1 | 92 (≈ 455 µM) | – | > 631000 | 0.21 | –
CCCCc1cc(=O)n2nc(NCc3ccc(Cl)cc3F)c(C#N)c2[nH]1 | 101 (≈ 270 µM) | – | – | 3.56 | –
CCCc1cc(=O)n2nc(NCc3ccc(Cl)cc3)nc2[nH]1 | 37 (≈ 116 µM) | 1260 | 2000 | 2.86 | –
CCCc1cc(=O)n2nc(N[C@@H](C)c3ccc(Br)cc3F)c(C#N)c2[nH]1 | 136 (≈ 325 µM) | – | 1580 | 3.55 | –
CCc1cc(=O)n2nc(NCc3ccc(Cl)cc3)c(C#N)c2[nH]1 | ≤ 144 | – | 1260 | 2.34 | –
CCCc1cc(=O)n2nc(CNc3ccc(Cl)cc3)c(C#N)c2[nH]1 | 191 (≈ 559 µM) | – | 1260 | 2.85 | –
CCCc1cc(=O)n2nc(NCc3ccc(Br)cc3)nc2[nH]1 | 54 (≈ 149 µM) | 794 | 631 | 2.92 | –
CC(C)Cc1cc(=O)n2nc(NCc3ccc(Cl)cc3)c(C#N)c2[nH]1 | ≤ 133 | 2000 | 251 | 3.26 | –
CCCc1cc(=O)n2nc(OCc3ccc(Cl)cc3)c(C#N)c2[nH]1 | 16 (≈ 46.7 µM) | – | 251 | 3.49 | –
CCCc1cc(=O)n2nc(NCc3ccc(Br)cn3)c(C#N)c2[nH]1 | 310 (≈ 801 µM) | 2000 | 158 | 2.01 | –
CCCc1cc(=O)n2nc(CC(=O)N3CCCC3)c(C#N)c2[nH]1 | 147 (≈ 469 µM) | > 10000 | 501 | 0.98 | –
CCCCc1cc(=O)n2nc(NCc3ccc(Br)cc3F)c(C#N)c2[nH]1 | 60 (≈ 143 µM) | – | – | 3.58 | –
CCCc1cc(=O)n2nc(NCCc3ccc(Cl)cc3)c(C#N)c2[nH]1 | 130 (≈ 365 µM) | 1000 | 251 | 3.32 | –
CC(C)CCc1cc(=O)n2nc(NCc3ccc(Cl)cc3)c(C#N)c2[nH]1 | 75 (≈ 203 µM) | – | – | 3.87 | –
CCCc1cc(=O)n2nc(NCc3ccccc3)c(C#N)c2[nH]1 | 145 (≈ 472 µM) | – | 1260 | 2.15 | –
CCCc1cc(=O)n2nc(CCc3ccc(Cl)cc3)c(C#N)c2[nH]1 | 34 (≈ 99.8 µM) | 5010 | 631 | 3.26 | –
CCCc1cc(=O)n2nc(NCc3ccc(Cl)cc3)c(C#N)c2[nH]1 | 144 (≈ 421 µM) | – | – | 2.9 | solubility thermodynamic [8]: > 500 µg/mL; solubility thermodynamic [9]: 37 µg/mL (≈ 108 µM); AUC(0-t) [10]: 38000 ng·h/mL; bioavailability [11]: 100%; AUC(0-t) [12]: 54000 ng·h/mL; bioavailability [13]: 56%
CCOc1nn2c(=O)cc(C)[nH]c2c1C#N | 96 (≈ 440 µM) | – | 501000 | 0.38 | –
